Data reported in patent US8642341B2, “Materials and methods for gene mediated therapy of psychiatric disorders” (Cornell University, priority 2007, dated 2014).

Tests used:
mice [1] = assay: forced swim test (FST); type: in vivo, mouse; settings: mice injected with control vector or no virus
Source text: (§1) Two mouse groups (n=10) received bilateral nucleus accumbens injections of AAV-p11-siRNA or control vector. The mouse groups are referenced herein as the “knockdown group” or “control” respectively. Behavioral testing began 6 weeks later, when expression from AAV vectors usually peaks. Behavioral testing included mouse tail suspension test (TST), open filed test, and forced swim test (FST).
(§2) Knockdown and control groups of mice were transfected with AAV-p11-siRNA or control AAV vector, as described in Example 1. An additional control group was not transfected with any virus. The mice were subsequently treated with the antidepressant imipramine.
(§3) The AAV plasmid shown in FIGS. 2 and 3 was used to generate a virus vector, which expresses the p11 gene product and which has the same AAV2 backbone described in Example 1. The resulting virus vector (“AAV-p11,” which is SEQ ID NO: 3) was injected into the nucleus accumbens of normal adult mice.
(§4) Three groups of p11 knockdown mice (as in Example 1) were transfected with no virus, control virus vector, and the AAV-p11 virus vector of Example 3, respectively. Each knockdown transfectant group was compared to a wild-type counterpart group, which was also transfected with no virus, control virus vector, or AAV-p11. All virus transfections involved bilateral injection to the nucleus accumbens.

mice [2] = assay: mouse tail suspension test (TST); type: in vivo; settings: mice injected with control vector or no virus
Source text: as §1, §2, §3, §4

CN(C)CCCN1c2ccccc2CCc2ccccc21 [imipramine]
immobility on the FST after imipramine (mice [1]): decreased immobility
immobility on the TST after imipramine (mice [2]): decreased immobility
